Experiments:
S. aureus ATCC 13709 = test: MIC, NCCLS broth microdilution; format: cell-based, Staphylococcus aureus; details: A = S. aureus ATCC 13709 (MSSA)
From the text: (§1) In vitro biological activity data were collected for a variety of microorganisms, including Staphylococcus aureus (ATCC 27660, a methicillin resistant strain (MRSA); ATCC 13709, a methicillin sensitive strain (MSSA)), Enterococcus faecalis (ATCC 29212), Bacillus cereus (ATCC 11778), Streptococcus pneumoniae (ATCC 49619), Candida albicans (ATCC 38247), Escherichia coli (ATCC 25922), and Moraxella (now Branhamella) catarrhalis (ATCC 25238).
(§2) The minimal inhibition concentration (MIC) of these compounds was determined using the National Committee for Clinical Laboratory Standards (NCCLS) broth microdilution assay in microtiter plates, as set forth in: (1) the guidelines of the National Committee for Clinical Laboratory Standards (NCCLS) Document M7-A4 (NCCLS, 1997); (2) the guidelines of the National Committee for Clinical Laboratory Standards (NCCLS) Document M11-A4 (NCCLS, 1997); and (3) the guidelines and reference method of the National Committee for Clinical Laboratory Standards (NCCLS) Document M27-T (NCCLS, 1995). For antifungal assays, the method recommended in Murray, P R., 1995 Manual of Clinical Microbiology (ASM Press, Washington, DC.), was employed.

S. aureus ATCC 27660 = test: MIC, NCCLS broth microdilution; format: cell-based, Staphylococcus aureus; details: B = S. aureus ATCC 27660 (MRSA)
From the text: as §1, §2

E. faecalis ATCC 29212 = test: MIC, NCCLS broth microdilution; format: cell-based, Enterococcus faecalis; details: C = E. faecalis ATCC 29212
From the text: as §1, §2

B. cereus ATCC 11778 = test: MIC, NCCLS broth microdilution; format: cell-based, Bacillus cereus; details: D = B. cereus ATCC 11778
From the text: as §1, §2

S. pneumoniae ATCC 49619 = test: MIC, NCCLS broth microdilution; format: cell-based, Streptococcus pneumoniae; details: E = S. pneumoniae ATCC 49619
From the text: as §1, §2

C. albicans ATCC 38247 = test: MIC, antifungal assay; format: cell-based, Candida albicans; details: F = C. albicans ATCC 38247
From the text: as §1, §2

E. coli ATCC 25922 = test: MIC, NCCLS broth microdilution; format: cell-based, Escherichia coli; details: G = E. coli ATCC 25922
From the text: as §1, §2

[1] = tested on: M. catarrhalis (ATCC 25238); test: MIC, NCCLS broth microdilution; format: cell-based, Moraxella (now Branhamella) catarrhalis; details: H = M. catarrhalis (ATCC 25238)
From the text: as §1, §2

SMILES	Minimum Inhibitory Concentration (MIC) (S. aureus ATCC 13709)	Minimum Inhibitory Concentration (MIC) (S. aureus ATCC 27660)	Minimum Inhibitory Concentration (MIC) (E. faecalis ATCC 29212)	Minimum Inhibitory Concentration (MIC) (B. cereus ATCC 11778)	Minimum Inhibitory Concentration (MIC) (S. pneumoniae ATCC 49619)	Minimum Inhibitory Concentration (MIC) (C. albicans ATCC 38247)	Minimum Inhibitory Concentration (MIC) (E. coli ATCC 25922)	Minimum Inhibitory Concentration (MIC) [1]
Cn1cc(NC(=O)c2cc3ccccc3cn2)cc1C(=O)Nc1ccc(C(=O)Nc2cn(C)c(C(=O)NCCN3CCCC(O)C3)n2)cc1 (racemic) [Compound A-69]	+++ (MIC ≦ 4 μg/mL)	+++ (MIC ≦ 4 μg/mL)	+++ (MIC ≦ 4 μg/mL)	+++ (MIC ≦ 4 μg/mL)	+++ (MIC ≦ 4 μg/mL)	>32 µg/mL	>32 µg/mL	+++ (MIC ≦ 4 μg/mL)
Cn1cc(NC(=O)c2cc3ccccc3cn2)cc1C(=O)Nc1ccc(C(=O)Nc2cn(C)c(C(=O)NCCN3CCC(O)C3)n2)cc1 (racemic) [Compound A-71]	+++ (MIC ≦ 4 μg/mL)	+++ (MIC ≦ 4 μg/mL)	+++ (MIC ≦ 4 μg/mL)	+++ (MIC ≦ 4 μg/mL)	+++ (MIC ≦ 4 μg/mL)	>32 µg/mL	+++ (MIC ≦ 4 μg/mL)	+++ (MIC ≦ 4 μg/mL)
Cn1cc(NC(=O)c2sccc2Cl)cc1C(=O)Nc1ccc(C(=O)Nc2cn(C)c(C(=O)NCCN3CCC(O)CC3)n2)cc1 [Compound A-1]	+++ (MIC ≦ 4 μg/mL)	+++ (MIC ≦ 4 μg/mL)	+++ (MIC ≦ 4 μg/mL)	+++ (MIC ≦ 4 μg/mL)	+++ (MIC ≦ 4 μg/mL)	>32 µg/mL	>32 µg/mL	+ (12 ≦ MIC ≦ 32 μg/mL)
Cn1cc(NC(=O)c2cccc(F)n2)cc1C(=O)Nc1ccc(C(=O)Nc2cn(C)c(C(=O)NCCN3CCC(O)CC3)n2)cc1 [Compound A-2]	+++ (MIC ≦ 4 μg/mL)	+++ (MIC ≦ 4 μg/mL)	+++ (MIC ≦ 4 μg/mL)	+++ (MIC ≦ 4 μg/mL)	+++ (MIC ≦ 4 μg/mL)	>32 µg/mL	>32 µg/mL	+ (12 ≦ MIC ≦ 32 μg/mL)
Cn1cc(NC(=O)c2sc3ccccc3c2Cl)cc1C(=O)Nc1ccc(C(=O)Nc2cn(C)c(C(=O)NCCN3CCC(O)CC3)n2)cc1 [Compound A-3]	+++ (MIC ≦ 4 μg/mL)	+++ (MIC ≦ 4 μg/mL)	+++ (MIC ≦ 4 μg/mL)	+++ (MIC ≦ 4 μg/mL)	+++ (MIC ≦ 4 μg/mL)	>32 µg/mL	>32 µg/mL	++ (4 < MIC < 12 μg/mL)
Cn1cc(NC(=O)c2ccc(Cl)cc2F)cc1C(=O)Nc1ccc(C(=O)Nc2cn(C)c(C(=O)NCCN3CCC(O)CC3)n2)cc1 [Compound A-4]	+++ (MIC ≦ 4 μg/mL)	+++ (MIC ≦ 4 μg/mL)	+++ (MIC ≦ 4 μg/mL)	+++ (MIC ≦ 4 μg/mL)	+++ (MIC ≦ 4 μg/mL)	+ (12 ≦ MIC ≦ 32 μg/mL)	++ (4 < MIC < 12 μg/mL)	+++ (MIC ≦ 4 μg/mL)
Cn1cc(NC(=O)c2nccc3ccccc23)cc1C(=O)Nc1ccc(C(=O)Nc2cn(C)c(C(=O)NCCN3CCC(O)CC3)n2)cc1 [Compound A-5]	+++ (MIC ≦ 4 μg/mL)	+++ (MIC ≦ 4 μg/mL)	+++ (MIC ≦ 4 μg/mL)	+++ (MIC ≦ 4 μg/mL)	+++ (MIC ≦ 4 μg/mL)	>32 µg/mL	>32 µg/mL	>32 µg/mL
Cn1cc(NC(=O)c2cc3cc4c(cc3cn2)OCO4)cc1C(=O)Nc1ccc(C(=O)Nc2cn(C)c(C(=O)NCCN3CCC(O)CC3)n2)cc1 [Compound A-6]	+++ (MIC ≦ 4 μg/mL)	+++ (MIC ≦ 4 μg/mL)	+++ (MIC ≦ 4 μg/mL)	+++ (MIC ≦ 4 μg/mL)	+++ (MIC ≦ 4 μg/mL)	+ (12 ≦ MIC ≦ 32 μg/mL)	+ (12 ≦ MIC ≦ 32 μg/mL)	++ (4 < MIC < 12 μg/mL)
Cn1cc(NC(=O)c2cc3c([N+](=O)[O-])cccc3cn2)cc1C(=O)Nc1ccc(C(=O)Nc2cn(C)c(C(=O)NCCN3CCC(O)CC3)n2)cc1 [Compound A-7]	+++ (MIC ≦ 4 μg/mL)	+++ (MIC ≦ 4 μg/mL)	+++ (MIC ≦ 4 μg/mL)	+++ (MIC ≦ 4 μg/mL)	+++ (MIC ≦ 4 μg/mL)	>32 µg/mL	>32 µg/mL	+ (12 ≦ MIC ≦ 32 μg/mL)
Cn1cc(NC(=O)c2cc3c(N)cccc3cn2)cc1C(=O)Nc1ccc(C(=O)Nc2cn(C)c(C(=O)NCCN3CCC(O)CC3)n2)cc1 [Compound A-8]	+++ (MIC ≦ 4 μg/mL)	+++ (MIC ≦ 4 μg/mL)	+++ (MIC ≦ 4 μg/mL)	+++ (MIC ≦ 4 μg/mL)	+++ (MIC ≦ 4 μg/mL)	++ (4 < MIC < 12 μg/mL)	++ (4 < MIC < 12 μg/mL)	++ (4 < MIC < 12 μg/mL)
Cn1cc(NC(=O)c2cc3c(Cl)cccc3cn2)cc1C(=O)Nc1ccc(C(=O)Nc2cn(C)c(C(=O)NCCN3CCC(O)CC3)n2)cc1 [Compound A-9]	+++ (MIC ≦ 4 μg/mL)	+++ (MIC ≦ 4 μg/mL)	+++ (MIC ≦ 4 μg/mL)	+++ (MIC ≦ 4 μg/mL)	+++ (MIC ≦ 4 μg/mL)	++ (4 < MIC < 12 μg/mL)	++ (4 < MIC < 12 μg/mL)	+ (12 ≦ MIC ≦ 32 μg/mL)
Cn1cc(NC(=O)c2cc3ccccc3cn2)cc1C(=O)Nc1ccc(C(=O)Nc2cn(C)c(C(=O)NCCN3CCOCC3)n2)cc1 [Compound A-10]	+++ (MIC ≦ 4 μg/mL)	+++ (MIC ≦ 4 μg/mL)	+++ (MIC ≦ 4 μg/mL)	+++ (MIC ≦ 4 μg/mL)	+++ (MIC ≦ 4 μg/mL)	>32 µg/mL	>32 µg/mL	+++ (MIC ≦ 4 μg/mL)

Source: US7642245B2, “Antibacterial compounds having a (pyrrole carboxamide)-(benzamide)-(imidazole carboxamide) motif” (Oscient Pharmaceuticals Corporation, priority 2002, dated 2010)
